Consider 13 compounds from patent publication US20070135497A1, “Biphenyl derivative or its salt, and pesticide containing it as an active ingredient” (ISHIHARA SANGYO KAISHA LTD., priority 2003, published 2007).

On to `CNC(=O)c1cccc(-c2c(C)cc(C)cc2C)c1` [1-22, N-methyl-3-(2′,4′,6′-trimethylphenyl)benzamide], for which the melting point – broadly, the temperature, or range, at which the solid turns liquid – was 142.9 °C.

The compound `CNC(=O)c1cccc(-c2c(Cl)cccc2Cl)c1` [1-30, N-methyl-3-(2′,6′-dichlorophenyl)benzamide] yielded a melting point of 174.8 °C.

`CNC(=O)c1cccc(-c2c(C)cc(OC)cc2C)c1` [1-65, N-methyl-3-(2′,6′-dimethyl-4′-methoxyphenyl)benzamide] had a melting point of 139.6 °C.

`CNC(=O)c1cccc(-c2c(Cl)ccc(Cl)c2Cl)c1` [1-72, N-methyl-3-(2′,3′,6′-trichlorophenyl)benzamide] returned a melting point of 135.3 °C.

The compound `CNC(=O)c1cccc(-c2c(Cl)ccc(Br)c2Cl)c1` [1-82, N-methyl-3-(2′,6′-dichloro-3′-bromophenyl)benzamide] had a melting point of 158 °C.

On to `CNC(=O)c1cccc(-c2c(Cl)ccc(N)c2Cl)c1` [1-108, N-methyl-3-(2′,6′-dichloro-3′-aminophenyl)benzamide], for which the melting point came out at 64.1 °C.

Turning to `CNC(=O)c1cccc(-c2c(Cl)ccc(C(F)(F)F)c2Cl)c1` [1-120, N-methyl-3-(2′,6′-dichloro-3′-trifluoromethylphenyl)benzamide], the melting point came to 126.1 °C.

For the compound `CCNC(=O)c1cccc(-c2c(Cl)ccc(C(F)(F)F)c2Cl)c1` [1-127, N-ethyl-3-(2′,6′-dichloro-3′-trifluoromethylphenyl)benzamide], the melting point is 137 °C.

Regarding `Nc1cccc(-c2c(Cl)cccc2Cl)c1` [1-268, 3-(2′,6′-dichlorophenyl)aniline], the melting point came out at 102 °C.

As to `CNC(=O)c1cc(-c2c(Cl)cccc2Cl)ccc1F` [2-22, N-methyl-3-(2′,6′-dichlorophenyl)-6-fluorobenzamide], the melting point was determined as 142.5 °C.

Compound `CNC(=O)c1cccc(-c2c(C)cc(Cl)cc2C)c1` [Compound No. 1-23, N-methyl-3-(4′-chloro-2′,6′-dimethylphenyl)benzamide] displayed a melting point of 137.1 °C.

Turning to `Cc1cc(Oc2ccc(C(F)(F)F)cn2)cc(C)c1-c1cccc(N)c1` [Compound No. 1-57, 4-(3′-aminophenyl)3,5-dimethylphenyl 5-trifluoromethyl-2-pyridyl ether], the melting point was determined as 200.3 °C.

`CNC(=O)c1cc(-c2c(C)cc(C)cc2C)ccc1Cl` [Compound No. 2-12, N-methyl-6-chloro-3-(2′,4′,6′-trimethylphenyl)benzamide]: the melting point came to 130 °C.
